Laboratory results from patent US10857209B2, “Lysosomal acid lipase and PPAR gamma ligands as immune therapies for cancer treatment” (Indiana University Research and Technology Corporation, priority 2016, dated 2020).

Key:
Format in all cases: cell-based, mouse
HD1B cells [1] = experiment: Mitochondrial membrane potential assay (JC1) in HD1A and HD1B cells; conditions: for mitochondrial membrane potential (JC-1 staining): NAC 100 μM or Tempol 10 μM overnight
Protocol: (§1) HD1A and HD1B cells were grown in 24-well plates to the desired confluence. Cells were treated with solvent (DMSO, 0.1%), rapamycin (40 nM), or PP242 (40 nM) for 1 hour, or NAC (100 μM, Sigma-Aldrich), or Tempol (10 μM, Sigma-Aldrich) overnight. Treated cells were replaced with the pre-warmed (37° C.) medium containing JC1 (5 μM, Molecular Probes) for 1 hour. Labeled cells were replaced with fresh medium and examined under the Nikon inverted fluorescence microscope.

HD1B cells [2] = experiment: ROS measurement by flow cytometry in HD1A and HD1B cells; conditions: 40 nM, 60 minutes
Protocol: HD1A and HD1B cells were treated with solvent, rapamycin (40 nM), or PP242 (40 nM) for 60 minutes. Cells were washed and stained with 2 μM of 2′,7′-dichlorodihydrofluorescein diacetate stained (DCFDA, Invitrogen) which is nonfluorescent until the acetate group is removed by intracellular esterases and oxidation occurs within the cell (Invitrogen). The incubation was at 37° C. for 20 minutes, followed by washing with cold PBS. The ROS level was measured by flow cytometry.

mTOR signaling pathway = experiment: Western blot of mTOR downstream effector S6 phosphorylation in HD1A and HD1B cells
Protocol: HD1A and HD1B cells were lysed in the Cell Lytic M mammalian cell lysis/extraction buffer (Sigma-Aldrich) according to the manufacturer's instruction. Protein samples were fractionated on a Novex 4-20% Tris-Glycine Mini Gel (Invitrogen). After transferring to the polyvinylidene difluoride membrane (Bio-Rad), the membrane was blotted with 5% nonfat dry milk in 1×PBS, and incubated with rabbit anti-p-S6 (Ser235/236), anti-S6, anti-p-Drp1 (Ser616), anti-Drp1, and anti-actin primary antibodies (from Cell Signaling), or rat anti-LAMP1, rabbit anti-Opa1 antibodies (from Santa Cruz). Following incubation with the secondary antibody that conjugated with horse radish peroxidase, proteins were visualized with chemiluminescent substrate (Thermo Scientific) under ChemiDox MP Image System.
as §1

Compound	mitochondrial membrane potential (JC-1 staining) (HD1B cells [1])	mitochondrial membrane potential (JC1 staining) (HD1B cells [1]; mTOR inhibitor 40 nM, 1 hour)	ROS production (HD1B cells [2])	mTOR downstream effector S6 phosphorylation (mTOR signaling pathway)
CC(=O)N[C@@H](CS)C(=O)O [NAC]	partially improved the condition of the mitochondrial membrane potential	–	–	–
CC(C)n1nc(-c2cc3cc(O)ccc3[nH]2)c2c(N)ncnc21 [PP242]	–	reversed the damaged mitochondrial membrane potential	decreased ROS production	blocked mTOR downstream effector S6 phosphorylation
CC1(C)CC(O)CC(C)(C)N1[O] [TEMPOL]	partially improved the condition of the mitochondrial membrane potential	–	–	–
